From ChEMBL document CHEMBL1201862, “PubChem BioAssay data set” (2004)
The source made the active and inactive calls.

What was measured:
[1] = A Cell Based Secondary Assay To Explore Cytotoxicity of Compounds that Sensitize Mycobacterium Tuberculosis to Beta-Lactam Antibiotics.; format: functional
[2] = molecular target: T1, Mannose-6-phosphate isomerase (Homo sapiens, UniProt P34949); test: human PMI inhibitors, high substrate, primary screen, biochemical, fluorescence intensity, high mannose 6-phosphate (AID 1220)
T1 sequence (P34949 whole entry): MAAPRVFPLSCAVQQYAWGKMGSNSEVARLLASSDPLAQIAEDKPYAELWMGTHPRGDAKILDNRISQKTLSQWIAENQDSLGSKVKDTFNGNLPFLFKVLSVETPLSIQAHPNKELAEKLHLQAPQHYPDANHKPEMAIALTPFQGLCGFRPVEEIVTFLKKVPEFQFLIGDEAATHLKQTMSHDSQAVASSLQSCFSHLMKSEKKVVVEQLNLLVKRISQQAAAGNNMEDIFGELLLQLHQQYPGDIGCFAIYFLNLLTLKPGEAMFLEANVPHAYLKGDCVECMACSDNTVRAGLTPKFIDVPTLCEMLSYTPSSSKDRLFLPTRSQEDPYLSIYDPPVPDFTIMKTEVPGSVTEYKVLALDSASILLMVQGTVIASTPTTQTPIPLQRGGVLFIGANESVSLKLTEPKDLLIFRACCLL

H9c2 = test: cells; format: functional, cell-based; conditions: Rattus norvegicus, H9c2, Myocardium;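 note: confirmatory concentration-response retest of ultra-high-throughput screening hits for modulation of myocardial damage; cell death induced by hydrogen peroxide oxidative stress; compound pretreatment for 60 min then peroxide exposure for 2 h; potency is for protecting the cells against peroxide damage rather than for killing them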
[3] = molecular target: T2, Zinc finger protein mex-5 (Caenorhabditis elegans, UniProt Q9XUB2); test: MEX-5/TCR-2 RNA interaction inhibitors, dose response, biochemical, C. elegans, fluorescence polarization (AID 1960)
T2 sequence (Q9XUB2 whole entry): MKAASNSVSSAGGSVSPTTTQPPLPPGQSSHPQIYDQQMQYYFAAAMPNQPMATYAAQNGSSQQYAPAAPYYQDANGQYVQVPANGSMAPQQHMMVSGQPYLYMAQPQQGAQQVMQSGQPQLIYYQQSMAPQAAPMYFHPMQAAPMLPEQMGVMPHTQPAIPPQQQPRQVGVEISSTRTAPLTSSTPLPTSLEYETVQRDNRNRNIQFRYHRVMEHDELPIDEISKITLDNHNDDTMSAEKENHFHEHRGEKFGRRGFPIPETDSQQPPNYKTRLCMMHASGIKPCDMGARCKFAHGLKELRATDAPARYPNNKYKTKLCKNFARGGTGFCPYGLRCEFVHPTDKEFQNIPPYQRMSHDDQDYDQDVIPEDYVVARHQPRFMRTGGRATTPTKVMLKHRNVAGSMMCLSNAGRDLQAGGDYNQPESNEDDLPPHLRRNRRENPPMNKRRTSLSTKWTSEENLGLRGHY

[4] = molecular target: T3, RNA-binding protein pos-1 (Caenorhabditis elegans, UniProt G5EF15); test: inhibitors of POS-1/mex-3 RNA binding, dose response, biochemical, fluorescence polarization (AID 1964);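 note: purified POS-1 fused to maltose binding protein made in E. coli; potency of compounds blocking POS-1 binding to fluorescent RNA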
T3 sequence (G5EF15 whole entry): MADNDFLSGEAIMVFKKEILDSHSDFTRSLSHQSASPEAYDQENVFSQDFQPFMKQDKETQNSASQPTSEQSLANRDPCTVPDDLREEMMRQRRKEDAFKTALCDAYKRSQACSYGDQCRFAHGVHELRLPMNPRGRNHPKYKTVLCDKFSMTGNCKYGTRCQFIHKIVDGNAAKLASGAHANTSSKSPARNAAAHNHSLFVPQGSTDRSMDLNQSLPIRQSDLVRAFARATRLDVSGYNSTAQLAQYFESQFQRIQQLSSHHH

[5] = microbe, parasite or virus in culture; format: functional; conditions: Mycobacterium tuberculosis
[6] = molecular target: T4, Heat shock factor protein 1 (Mus musculus, UniProt P38532); test: inhibition of MG132-induced HSE-luciferase signal, confirmation, cell-based, NIH3T3, luminescence, dose retest (AID 2382); format: functional;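 note: NIH3T3 fibroblasts with HSF1-driven luciferase reporter stressed by proteasome inhibitor MG132; luminescence from HSF1-driven luciferase expression after 8 hours of MG132 stress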
T4 sequence (P38532 whole entry): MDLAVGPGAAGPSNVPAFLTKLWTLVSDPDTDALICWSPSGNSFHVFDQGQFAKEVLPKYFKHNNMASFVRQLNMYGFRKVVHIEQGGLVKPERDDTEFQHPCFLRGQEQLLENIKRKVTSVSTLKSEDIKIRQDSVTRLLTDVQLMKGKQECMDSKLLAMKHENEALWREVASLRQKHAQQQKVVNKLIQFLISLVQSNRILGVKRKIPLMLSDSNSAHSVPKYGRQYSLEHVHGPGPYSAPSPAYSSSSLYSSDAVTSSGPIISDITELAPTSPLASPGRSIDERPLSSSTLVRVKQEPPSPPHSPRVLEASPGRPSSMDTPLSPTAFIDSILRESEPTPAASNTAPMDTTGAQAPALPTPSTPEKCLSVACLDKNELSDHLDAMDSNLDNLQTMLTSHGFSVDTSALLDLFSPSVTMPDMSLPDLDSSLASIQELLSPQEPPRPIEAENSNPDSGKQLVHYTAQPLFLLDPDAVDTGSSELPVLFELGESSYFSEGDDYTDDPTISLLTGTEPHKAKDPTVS

Cytochrome P450 2C19 = Cytochrome P450 2C19 (Homo sapiens, UniProt P33261); test: Cytochrome panel assay with activity outcomes. Panel member name: p450-cyp2c19 Compounds with AC50 equal or less than 10 uM are considered active; format: functional; conditions: read-out: AC50
Cytochrome P450 2C19, sequence (P33261 whole entry): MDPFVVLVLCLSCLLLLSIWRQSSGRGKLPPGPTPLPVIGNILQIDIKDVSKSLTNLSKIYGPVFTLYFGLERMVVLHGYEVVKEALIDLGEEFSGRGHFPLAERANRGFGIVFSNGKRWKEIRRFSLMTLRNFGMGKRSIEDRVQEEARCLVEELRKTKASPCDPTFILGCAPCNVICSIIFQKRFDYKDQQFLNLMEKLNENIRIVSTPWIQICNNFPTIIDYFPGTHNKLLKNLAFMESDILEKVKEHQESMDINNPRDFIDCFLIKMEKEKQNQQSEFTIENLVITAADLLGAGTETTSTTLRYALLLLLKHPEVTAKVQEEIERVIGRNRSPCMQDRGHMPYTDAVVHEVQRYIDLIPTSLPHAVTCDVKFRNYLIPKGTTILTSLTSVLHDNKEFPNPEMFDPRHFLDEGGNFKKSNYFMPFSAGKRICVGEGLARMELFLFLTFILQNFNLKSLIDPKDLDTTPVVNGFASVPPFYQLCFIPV

Streptokinase A = molecular target: T5, Streptokinase A (Streptococcus pyogenes serotype M1, UniProt P10520); test: S. pyogenes streptokinase expression inhibitors, potency, dose response, plasminogen activation absorbance, OD405 (AID 1914); format: functional, Streptococcus pyogenes M1 GAS;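 note: secreted streptokinase activity via plasminogen activation per viability signal from cell pellet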
T5 sequence (P10520 whole entry): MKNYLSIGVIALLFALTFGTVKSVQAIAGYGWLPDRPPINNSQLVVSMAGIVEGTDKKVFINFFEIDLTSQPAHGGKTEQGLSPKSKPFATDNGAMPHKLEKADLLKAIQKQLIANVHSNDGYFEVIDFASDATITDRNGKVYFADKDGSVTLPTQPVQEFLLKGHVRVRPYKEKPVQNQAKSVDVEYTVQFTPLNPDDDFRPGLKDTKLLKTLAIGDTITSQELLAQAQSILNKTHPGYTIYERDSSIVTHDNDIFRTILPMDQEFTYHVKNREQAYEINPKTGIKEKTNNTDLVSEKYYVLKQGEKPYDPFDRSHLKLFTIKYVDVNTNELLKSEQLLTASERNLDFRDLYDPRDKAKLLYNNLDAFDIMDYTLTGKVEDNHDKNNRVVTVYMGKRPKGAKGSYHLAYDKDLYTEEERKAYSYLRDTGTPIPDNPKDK

[7] = Luminescence Cell-Based Dose Confirmation HTS to Identify Inhibitors of Platelet Dense Granule Release. [Related pubchem assays: 1663 (Primary HTS), 1678 (Summary of Project)]; format: functional
[8] = test system: Streptococcus sp. 'group A'; test: growth inhibition of control SK(-) GAS strain, dose response, counter-screen for streptokinase expression inhibitor project, luminescence, kanamycin, BacTiterGlo, confirmation (AID 1900); format: functional, organism-based
[9] = molecular target: Luciferin 4-monooxygenase (Photinus pyralis, UniProt P08659); test: firefly luciferase enzyme inhibitors, dose response, biochemical, luminescence (AID 1891)
Luciferin 4-monooxygenase, sequence (P08659 whole entry): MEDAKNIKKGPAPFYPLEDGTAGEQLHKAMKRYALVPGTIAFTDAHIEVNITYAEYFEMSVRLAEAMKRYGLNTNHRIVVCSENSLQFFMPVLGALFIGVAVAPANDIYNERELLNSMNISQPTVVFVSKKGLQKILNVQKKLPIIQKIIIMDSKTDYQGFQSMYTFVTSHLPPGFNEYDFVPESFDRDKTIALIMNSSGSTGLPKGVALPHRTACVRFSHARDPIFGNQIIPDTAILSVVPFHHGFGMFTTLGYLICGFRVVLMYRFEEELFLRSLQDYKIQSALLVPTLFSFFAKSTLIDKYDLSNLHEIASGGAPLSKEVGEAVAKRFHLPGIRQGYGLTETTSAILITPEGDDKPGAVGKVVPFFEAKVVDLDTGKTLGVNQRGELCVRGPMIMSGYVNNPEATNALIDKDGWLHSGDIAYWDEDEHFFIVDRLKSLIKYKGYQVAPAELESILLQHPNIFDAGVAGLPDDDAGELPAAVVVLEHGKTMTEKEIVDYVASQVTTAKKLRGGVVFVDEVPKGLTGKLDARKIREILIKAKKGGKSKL

Streptococcus = test: Group A Streptococcus viability loss, dose response, counter-screen for streptokinase expression inhibitor project, luminescence, BacTiterGlo (AID 1915); format: functional, organism-based;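 note: potency for reduction of bacterial viability or growth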
[10] = molecular target: T6, Ubiquitin-conjugating enzyme E2 N (Homo sapiens, UniProt P61088); format: functional;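 note: Dose-response confirmation in a TR-FRET assay detecting UBC13-driven polyubiquitin chain formation, inhibition measured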
T6 sequence (P61088 whole entry): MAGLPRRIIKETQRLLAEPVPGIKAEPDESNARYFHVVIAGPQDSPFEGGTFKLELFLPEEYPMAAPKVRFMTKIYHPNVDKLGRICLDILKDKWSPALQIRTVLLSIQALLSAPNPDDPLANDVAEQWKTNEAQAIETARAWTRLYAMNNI

[11] = inhibitors of clade B AD8 Env fusion, dose response, cell-based, cherry-pick (AID 652062); format: functional;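 note: luciferase signal from cell-cell fusion driven by HIV-1 clade B AD8 Env; potency is for inhibitors of fusion seen as a drop in luminescence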
[12] = ZM109 Env clade C HIV-1 fusion inhibitors, dose response, HeLa effector, CEM target cells, luciferase, cherry-pick (AID 652058); format: functional, cell-based
[13] = inhibitors of HIV Env-driven cell fusion, dose response, cherry-pick (AID 652057); format: functional, cell-based
[14] = NIH:OVCAR-3 ovarian cancer cell cytotoxicity, dose response, PAX8 inhibitor project, plate reader, dry powder samples (AID 743044); format: functional, cell-based
Paired box protein Pax-8 = Paired box protein Pax-8 (Homo sapiens, UniProt Q06710); test: inhibitors of PAX8-driven TPO luciferase reporter, dose response, RMG-I cells, cherry-pick (AID 687027); format: functional, cell-based;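 note: luciferase reporter driven by Pax8 target thyroperoxidase promoter measured by SteadyGlo luminescence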
Paired box protein Pax-8, sequence (Q06710 whole entry): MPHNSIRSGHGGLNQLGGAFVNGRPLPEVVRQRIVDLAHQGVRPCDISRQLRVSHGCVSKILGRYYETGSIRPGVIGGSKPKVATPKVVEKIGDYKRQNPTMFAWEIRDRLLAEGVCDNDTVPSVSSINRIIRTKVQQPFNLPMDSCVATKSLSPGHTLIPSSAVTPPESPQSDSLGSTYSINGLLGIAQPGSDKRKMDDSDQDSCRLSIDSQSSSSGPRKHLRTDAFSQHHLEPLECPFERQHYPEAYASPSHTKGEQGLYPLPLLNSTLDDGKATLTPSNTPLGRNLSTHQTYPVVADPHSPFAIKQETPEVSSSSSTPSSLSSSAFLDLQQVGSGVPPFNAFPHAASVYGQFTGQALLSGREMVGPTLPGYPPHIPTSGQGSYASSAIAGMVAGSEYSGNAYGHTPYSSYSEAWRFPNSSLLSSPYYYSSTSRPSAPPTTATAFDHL

[15] = P. falciparum Dd2 growth inhibitors, dose response, SYBR Green, cherry-picked samples (AID 1159567); format: functional, cell-based

O=C(C1=C[C@@H](c2ccc(Br)cc2)C[C@@H](OCc2ccc(CO)cc2)O1)N1CCN(Cc2ccc3c(c2)OCO3)CC1
CC50 [1]: > 40 µM (active)

Cc1ccc(NCc2nc3ccccc3n2CCOc2ccccc2)cc1
IC50 [2]: > 50 µM (not active)

Cn1nnnc1Sc1ncnc2scc(-c3ccccc3)c12
CC50 [1]: 30 µM (active)

O=[N+]([O-])c1ccc(-c2nc(Nc3ccc(O)cc3)c3ccccc3n2)cc1
IC50 (H9c2): > 79 µM (inactive)

CN(C(S)=Nc1ccc(SC(F)F)cc1)c1ccc(O)cc1
IC50 [2]: > 50 µM (not active)

CCOC(=O)c1c(C)[nH]c(C)c1C(=O)COC(=O)/C=C/c1ccc(OC(F)F)cc1
CC50 [1]: > 40 µM (active)

Cc1ccc(N/C=C/C(=O)c2sc(-c3ccccc3)nc2C)cc1
EC50 [3]: > 300 µM (not active)
EC50 [4]: 46.4 µM (inconclusive)

CCOc1ccc2nc(NC(=O)C34CC5CC(CC(NC(C)=O)(C5)C3)C4)sc2c1
CC50 [5]: > 40 µM (active)

CCOc1ccc2c(c1)/C(=C(\C(Cl)=C(Cl)Cl)[N+](=O)[O-])N2
EC50 [3]: 40.3 µM (active)
EC50 [4]: 68 µM (active)

Cc1ccc2[nH]c(O)c(N=Nc3ccccc3C)c2c1
EC50 [6]: > 195 µM (not active)
EC50 [3]: > 300 µM (not active)
EC50 [4]: > 300 µM (not active)

Cc1c(C#N)c(N)nc2c3c(sc12)NC(=O)CC3c1ccc(Cl)cc1 (configuration not stated)
IC50 (H9c2): 28.2 µM (active)

Cc1c(C(=O)NC(=S)Nc2ccccc2N2CCCC2)cccc1[N+](=O)[O-]
CC50 [1]: > 40 µM (active)

Oc1nc(-c2cccnc2)nc2ccccc12
IC50 (H9c2): 12.8 µM (active)

COc1ccc(-c2cc(=O)oc3cc(OC(=O)C4CCCCC4)ccc23)cc1
IC50 (H9c2): 22 µM (active)

Cc1ccc(C)c(S(=O)(=O)N2CCN(C(=O)Cn3[nH]c(=O)c4ccccc4c3=O)CC2)c1
IC50 (H9c2): > 79 µM (inactive)

COc1ccc(NC(=S)N(Cc2cccnc2)Cc2cc3cc(OC)c(OC)cc3nc2O)cc1
IC50 (H9c2): > 79 µM (inactive)

C=CCSc1nnc(-c2cc3c(-c4ccccc4)nn(C)c3s2)n1C
AC50 (Cytochrome P450 2C19): 17.8 µM (inconclusive)
CC50 [1]: > 40 µM (active)

O=C(NNC(=O)c1ccccc1O)c1ccc(S(=O)(=O)Nc2ccccc2F)cc1
EC50 [3]: > 300 µM (inconclusive)
EC50 [4]: > 300 µM (not active)

COC(=O)c1sccc1NC(=O)c1ccc(C)s1
EC50 [3]: > 300 µM (not active)
EC50 [4]: > 300 µM (not active)

Cc1cc(NC(=O)/C=C/c2ccccc2Cl)n(-c2nc3ccccc3[nH]2)n1
EC50 (Streptokinase A): > 150 µM (not active)
EC50 [7]: 13.2 µM (active)
EC50 [8]: 7.03 µM (active)
EC50 [9]: 3.94 µM (active)
CC50 [1]: 14.5 µM (active)
EC50 (Streptococcus): > 150 µM (not active)

COc1ccc(-c2cc(C(F)(F)F)nc(SCC(=O)Nc3sc4c(c3C#N)CCC4)n2)cc1
CC50 [1]: > 40 µM (active)

CCN1C(N(C)CCc2c[nH]c3ccccc23)=N[C@@H](c2cccc(C(F)(F)F)c2)C(C(=O)OC)=C1C
CC50 [5]: 14.3 µM (active)
IC50 [10]: > 20 µM (inactive)

O=C(Nc1cccc2cccnc12)c1ccc2sc([C@H]3C[C@H](O)[C@@H](CO)O3)nc2c1
IC50 (H9c2): 11 µM (active)

CC(=O)c1ccc(-c2[nH]c3ccccc3c2CCN2C(=O)c3ccccc3C2=O)cc1
IC50 (H9c2): > 79 µM (inactive)

CC(=C/c1ccc(C(C)C)cc1)/C=N/NC(=O)c1ccncc1
IC50 (H9c2): > 79 µM (inactive)

O=[N+]([O-])c1ccc(Nc2nc(N/N=C/c3cccc(F)c3)nc(N3CCCC3)n2)cc1
IC50 (H9c2): > 79 µM (inactive)

CC(C)NC(=O)Nc1ccc2c(c1)C(=O)N([C@@H](C)CO)C[C@@H](C)[C@@H](CN(C)C(=O)Nc1ccc(F)cc1)OCCCC[C@@H](C)O2
AC50 [11]: 3.2 µM (active)
AC50 [12]: 5.56 µM (active)
AC50 [13]: 2.79 µM (active)

C[C@H]1CN([C@@H](C)CO)C(=O)c2ccccc2-c2ccccc2CO[C@H]1CN(C)Cc1ccc(F)cc1
AC50 [11]: 0.857 µM (active)
AC50 [12]: < 0.285 µM (active)
AC50 [13]: < 0.285 µM (active)

COc1ccccc1-c1ccc2c(c1)O[C@H](CN(C)S(=O)(=O)c1ccccc1)[C@H](C)CN([C@H](C)CO)S2(=O)=O
AC50 [12]: 51.3 µM (active)
AC50 [13]: 23.5 µM (active)

O=C(Cc1ccccc1)N1CC[C@H]2[C@H](CO)Nc3ccc(C4=CCCCC4)cc3[C@H]21
AC50 [14]: 51.3 µM (active)
AC50 (Paired box protein Pax-8): 6.67 µM (active)

CCOc1cc(/C=N\NC(=O)c2ccc(NC(=O)C(C)(C)C)cc2)ccc1OC(=O)c1ccc(C)cc1
CC50 [1]: > 40 µM (active)

COc1cccc(-c2ccc([C@@H]3[C@H](CO)N4CCCCN(C(=O)c5ccc(F)cc5)C[C@@H]34)cc2)c1
AC50 [15]: 5.39 µM (active)

C[C@H](CO)N1C[C@H](C)[C@H](CN(C)Cc2ccc(Oc3ccccc3)cc2)Oc2ccc(NS(=O)(=O)c3ccc(Cl)cc3)cc2CC1=O
AC50 [15]: 7.51 µM (active)
